Experimental findings from patent publication US20240101576A1, “HETEROCYCLIC INHIBITORS OF EGFR AND/OR HER2, FOR USE IN THE TREATMENT OF CANCER” (Scorpion Therapeutics, Inc., priority 2020, published 2024) are described below.

Common to all, as to assay type: cell-based
Experiment [1] addresses T1, EGFR exon 20 ASV Ins V769_D770 (Ba/F3 cells) (Homo sapiens, UniProt P00533, INS769ASV).
T1 construct: expressed in transfected cells; host or cells: Ba/F3 (murine pro-B cells), retroviral transduction, puromycin selection, IL3-independent pool
The experiment is described as follows: Inhibitor activity on EGFR-dependent cell growth (CellTiter-Glo, 72 h), Ba/F3 EGFR exon 20 ASV Ins. Particulars: read-out: BaF3 ASV IC50. An excerpt: (§1) Example A. Inhibitor Activity on EGFR-Dependent Cell Growth
(§2) Cell lines are generated by transducing Ba/F3 cells with retroviruses containing vectors with EGFR WT, EGFR L858R, EGFR exon 19del, EGFR L858R/C797S, EGFR exon 20 NPG Ins D770_N771, EGFR exon 20 ASV Ins V769_D770, EGFR exon 20 SVD Ins D770_N771, or EGFR exon 20 FQEA Ins A763_V764 genes and a puromycin selection marker. Transduced cells are selected with puromycin for 7 days and are then be transferred into culture media without Interleukin 3 (IL3). EGFR WT cells are maintained with supplemental EGF. Surviving cells are confirmed to express EGFR by Western blot and maintained as a pool. The IC50 date were included in Table 6 and Table 7.
(§3) 1.1 Cells are harvested from flask into cell culture medium and the cell number counted.
(§4) 1.2 Cells are diluted with culture medium to the desired density and 40 μL of cell suspension is added into each well of 384-well cell culture plate and the seeding density is 800 (FQEA, exon 19del), 600 (WT, NPG, L858R/C797S), or 400 (ASV, SVD, L858R) cells/well.
(§5) 2 Compound Preparation and Treatment
(§6) 2.1 Test compounds are dissolved to 10 mM in a DMSO stock solution. 45 μL of stock solution is transferred to a 384 polypropylene plate (pp-plate). Perform 3-fold, 10-point dilution via transferring 15 μL compound into 30 μL DMSO using a TECAN (EVO200) liquid handler.
(§7) 2.2 Spin plates at room temperature at 1,000 RPM for 1 minute.
(§8) 2.3 Transfer 120 nL of diluted compound from compound source plate into the cell plate.
(§9) 2.4 After compound treatment for 72 hours, perform CTG detection for compound treatment plates as described in “Detection” section.
(§10) 3.1 Plates are removed from incubators and equilibrated at room temperature for 15 minutes.
(§11) 3.2 Thaw the CellTiter Glo reagents and allow to equilibrate to room temperature before the experiment.
(§12) 3.3 Add 40 μL of CellTiter-Glo reagent into each well (at 1:1 to culture medium). Then place the plates at room temperature for 30 min followed by reading on EnVision.
(§13) 4.1 Inhibition activity is calculated following the formula below:
(§14) % Inhibition=100×(LumHC−LumSample)/(LumHC−LumLC) • where HC is obtained from cells treated with 0.1% DMSO only; and LC is obtained from culture medium only.
(§15) 4.2 2. Calculate the IC50 by fitting the Curve using Xlfit (v5.3.1.3), equation 201.
(§16) Y=Bottom+(Top−Bottom)/(1+10^((Log IC50−X)*HillSlope))
(Cellular ATP, detected with luciferase, serves as a proxy for viable cell number.)

Experiment [2] concerns the target T2, EGFR exon 20 SVD Ins D770_N771 (Ba/F3 cells) (Homo sapiens, UniProt P00533, INS770SVD).
T2 construct: expressed in transfected cells; host or cells: Ba/F3 (murine pro-B cells), retroviral transduction, puromycin selection, IL3-independent pool
The experiment is described as follows: Inhibitor activity on EGFR-dependent cell growth (CellTiter-Glo, 72 h), Ba/F3 EGFR exon 20 SVD Ins. Particulars: read-out: BaF3 SVD IC50.
Text: as §1, §2, §3, §4, §5, §6, §7, §8, §9, §10, §11, §12, §13, §14, §15, §16

The target in experiment [3] is T3, EGFR exon 20 FQEA Ins A763_V764 (Ba/F3 cells) (Homo sapiens, UniProt P00533, INS763FQEA).
T3 construct: expressed in transfected cells; host or cells: Ba/F3 (murine pro-B cells), retroviral transduction, puromycin selection, IL3-independent pool
The experiment is described as follows: Inhibitor activity on EGFR-dependent cell growth (CellTiter-Glo, 72 h), Ba/F3 EGFR exon 20 FQEA Ins. Particulars: read-out: BaF3 FQEA IC50.
Text: as §1, §2, §3, §4, §5, §6, §7, §8, §9, §10, §11, §12, §13, §14, §15, §16

The target of a further experiment is T4, EGFR WT (Ba/F3 cells) (Homo sapiens, UniProt P00533).
T4 construct: expressed in transfected cells; host or cells: Ba/F3 (murine pro-B cells), retroviral transduction, puromycin selection, maintained with EGF
Kind of experiment: Inhibitor activity on EGFR-dependent cell growth (CellTiter-Glo, 72 h), Ba/F3 EGFR WT. Conditions: read-out: BaF3 WT IC50.
Text: as §1, §2, §3, §4, §5, §6, §7, §8, §9, §10, §11, §12, §13, §14, §15, §16

T4 sequence (P00533 25-1210): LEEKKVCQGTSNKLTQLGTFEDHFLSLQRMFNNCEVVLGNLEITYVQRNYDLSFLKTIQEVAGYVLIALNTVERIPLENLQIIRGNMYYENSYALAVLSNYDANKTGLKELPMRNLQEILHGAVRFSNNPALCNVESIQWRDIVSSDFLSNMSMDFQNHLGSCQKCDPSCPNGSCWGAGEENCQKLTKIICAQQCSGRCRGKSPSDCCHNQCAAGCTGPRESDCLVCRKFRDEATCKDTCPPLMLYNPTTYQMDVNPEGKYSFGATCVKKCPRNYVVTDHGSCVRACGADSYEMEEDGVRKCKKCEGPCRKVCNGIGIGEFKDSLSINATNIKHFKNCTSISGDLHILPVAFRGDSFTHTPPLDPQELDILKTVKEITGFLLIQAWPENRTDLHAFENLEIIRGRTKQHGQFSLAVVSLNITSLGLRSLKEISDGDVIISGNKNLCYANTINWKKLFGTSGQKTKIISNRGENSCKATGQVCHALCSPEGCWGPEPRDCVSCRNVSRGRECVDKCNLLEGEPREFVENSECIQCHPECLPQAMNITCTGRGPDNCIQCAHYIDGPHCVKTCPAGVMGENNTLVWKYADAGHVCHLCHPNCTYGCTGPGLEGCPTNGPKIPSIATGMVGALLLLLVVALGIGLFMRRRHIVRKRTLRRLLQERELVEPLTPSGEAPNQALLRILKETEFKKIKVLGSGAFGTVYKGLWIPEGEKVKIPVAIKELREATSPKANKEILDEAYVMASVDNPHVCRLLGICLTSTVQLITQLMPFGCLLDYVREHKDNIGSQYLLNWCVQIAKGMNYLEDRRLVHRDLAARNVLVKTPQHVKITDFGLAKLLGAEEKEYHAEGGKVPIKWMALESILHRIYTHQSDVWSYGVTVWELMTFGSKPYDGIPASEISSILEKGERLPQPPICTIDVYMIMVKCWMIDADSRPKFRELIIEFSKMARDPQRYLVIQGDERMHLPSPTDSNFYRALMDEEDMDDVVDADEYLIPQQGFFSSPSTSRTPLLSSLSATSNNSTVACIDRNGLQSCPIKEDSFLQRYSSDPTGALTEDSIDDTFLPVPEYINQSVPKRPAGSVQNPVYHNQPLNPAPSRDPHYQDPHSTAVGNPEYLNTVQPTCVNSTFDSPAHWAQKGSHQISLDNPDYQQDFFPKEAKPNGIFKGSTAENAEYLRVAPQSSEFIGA
T2 sequence (P00533 with tags, fused parts or gaps INS770SVD): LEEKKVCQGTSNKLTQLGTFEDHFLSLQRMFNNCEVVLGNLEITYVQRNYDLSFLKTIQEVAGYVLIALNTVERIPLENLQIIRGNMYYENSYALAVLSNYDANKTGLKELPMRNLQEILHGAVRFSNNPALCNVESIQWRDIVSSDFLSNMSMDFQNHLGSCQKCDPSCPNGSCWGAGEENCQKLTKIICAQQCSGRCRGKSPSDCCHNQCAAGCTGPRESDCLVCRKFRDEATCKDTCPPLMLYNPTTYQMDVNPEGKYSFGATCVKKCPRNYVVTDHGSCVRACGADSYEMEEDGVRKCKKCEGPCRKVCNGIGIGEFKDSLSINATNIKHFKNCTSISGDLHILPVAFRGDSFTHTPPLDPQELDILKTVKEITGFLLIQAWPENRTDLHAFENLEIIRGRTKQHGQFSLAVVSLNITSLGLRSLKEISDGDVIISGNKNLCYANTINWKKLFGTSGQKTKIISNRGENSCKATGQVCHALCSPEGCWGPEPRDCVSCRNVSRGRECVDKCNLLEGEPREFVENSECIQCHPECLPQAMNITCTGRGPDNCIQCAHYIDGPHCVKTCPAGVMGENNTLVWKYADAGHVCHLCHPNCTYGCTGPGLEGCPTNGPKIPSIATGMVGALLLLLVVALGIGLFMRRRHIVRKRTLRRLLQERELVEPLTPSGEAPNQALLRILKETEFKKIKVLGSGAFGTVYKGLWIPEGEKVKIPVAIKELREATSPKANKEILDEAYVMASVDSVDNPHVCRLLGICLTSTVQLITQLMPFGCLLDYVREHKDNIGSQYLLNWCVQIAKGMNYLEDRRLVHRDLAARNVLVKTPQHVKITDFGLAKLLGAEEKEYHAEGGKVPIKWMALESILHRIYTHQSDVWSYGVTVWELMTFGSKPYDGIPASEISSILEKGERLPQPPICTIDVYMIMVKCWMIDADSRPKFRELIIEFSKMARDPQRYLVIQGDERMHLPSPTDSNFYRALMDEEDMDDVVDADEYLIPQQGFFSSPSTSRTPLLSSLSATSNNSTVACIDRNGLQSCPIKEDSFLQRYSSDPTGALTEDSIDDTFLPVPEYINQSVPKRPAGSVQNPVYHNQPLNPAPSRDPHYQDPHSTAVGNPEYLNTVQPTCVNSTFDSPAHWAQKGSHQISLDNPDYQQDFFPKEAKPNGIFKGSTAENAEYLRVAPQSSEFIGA
T3 sequence (P00533 with tags, fused parts or gaps INS763FQEA): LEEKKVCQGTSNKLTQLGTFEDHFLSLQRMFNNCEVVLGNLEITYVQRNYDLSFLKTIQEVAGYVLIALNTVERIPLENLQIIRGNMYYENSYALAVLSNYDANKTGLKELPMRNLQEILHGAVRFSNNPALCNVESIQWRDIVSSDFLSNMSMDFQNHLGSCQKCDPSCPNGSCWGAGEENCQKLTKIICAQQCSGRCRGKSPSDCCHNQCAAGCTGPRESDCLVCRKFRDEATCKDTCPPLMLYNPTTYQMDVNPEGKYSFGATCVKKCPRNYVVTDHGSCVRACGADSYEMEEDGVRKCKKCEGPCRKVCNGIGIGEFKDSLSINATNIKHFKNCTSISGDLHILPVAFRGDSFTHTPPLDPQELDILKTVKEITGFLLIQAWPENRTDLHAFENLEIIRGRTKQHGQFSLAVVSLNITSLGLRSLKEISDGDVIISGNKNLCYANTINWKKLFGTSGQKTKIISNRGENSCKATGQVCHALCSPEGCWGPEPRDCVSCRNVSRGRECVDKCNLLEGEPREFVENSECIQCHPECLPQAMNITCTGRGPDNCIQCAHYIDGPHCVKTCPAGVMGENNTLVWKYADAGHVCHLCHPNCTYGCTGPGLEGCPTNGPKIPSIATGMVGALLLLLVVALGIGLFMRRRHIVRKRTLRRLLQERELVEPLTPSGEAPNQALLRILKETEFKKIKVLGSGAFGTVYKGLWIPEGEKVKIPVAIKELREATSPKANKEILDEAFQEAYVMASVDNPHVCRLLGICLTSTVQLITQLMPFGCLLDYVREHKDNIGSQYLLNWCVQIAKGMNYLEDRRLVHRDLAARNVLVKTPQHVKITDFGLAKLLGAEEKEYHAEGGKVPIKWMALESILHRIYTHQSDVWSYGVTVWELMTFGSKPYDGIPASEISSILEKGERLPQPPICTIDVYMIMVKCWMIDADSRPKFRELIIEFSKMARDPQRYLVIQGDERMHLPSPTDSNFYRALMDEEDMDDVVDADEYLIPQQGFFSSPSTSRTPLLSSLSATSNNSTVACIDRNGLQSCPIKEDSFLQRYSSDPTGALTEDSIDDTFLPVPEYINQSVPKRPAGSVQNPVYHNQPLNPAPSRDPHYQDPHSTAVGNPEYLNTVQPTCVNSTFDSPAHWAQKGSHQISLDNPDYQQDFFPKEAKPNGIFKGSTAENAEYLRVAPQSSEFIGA
T1 sequence (P00533 with tags, fused parts or gaps INS769ASV): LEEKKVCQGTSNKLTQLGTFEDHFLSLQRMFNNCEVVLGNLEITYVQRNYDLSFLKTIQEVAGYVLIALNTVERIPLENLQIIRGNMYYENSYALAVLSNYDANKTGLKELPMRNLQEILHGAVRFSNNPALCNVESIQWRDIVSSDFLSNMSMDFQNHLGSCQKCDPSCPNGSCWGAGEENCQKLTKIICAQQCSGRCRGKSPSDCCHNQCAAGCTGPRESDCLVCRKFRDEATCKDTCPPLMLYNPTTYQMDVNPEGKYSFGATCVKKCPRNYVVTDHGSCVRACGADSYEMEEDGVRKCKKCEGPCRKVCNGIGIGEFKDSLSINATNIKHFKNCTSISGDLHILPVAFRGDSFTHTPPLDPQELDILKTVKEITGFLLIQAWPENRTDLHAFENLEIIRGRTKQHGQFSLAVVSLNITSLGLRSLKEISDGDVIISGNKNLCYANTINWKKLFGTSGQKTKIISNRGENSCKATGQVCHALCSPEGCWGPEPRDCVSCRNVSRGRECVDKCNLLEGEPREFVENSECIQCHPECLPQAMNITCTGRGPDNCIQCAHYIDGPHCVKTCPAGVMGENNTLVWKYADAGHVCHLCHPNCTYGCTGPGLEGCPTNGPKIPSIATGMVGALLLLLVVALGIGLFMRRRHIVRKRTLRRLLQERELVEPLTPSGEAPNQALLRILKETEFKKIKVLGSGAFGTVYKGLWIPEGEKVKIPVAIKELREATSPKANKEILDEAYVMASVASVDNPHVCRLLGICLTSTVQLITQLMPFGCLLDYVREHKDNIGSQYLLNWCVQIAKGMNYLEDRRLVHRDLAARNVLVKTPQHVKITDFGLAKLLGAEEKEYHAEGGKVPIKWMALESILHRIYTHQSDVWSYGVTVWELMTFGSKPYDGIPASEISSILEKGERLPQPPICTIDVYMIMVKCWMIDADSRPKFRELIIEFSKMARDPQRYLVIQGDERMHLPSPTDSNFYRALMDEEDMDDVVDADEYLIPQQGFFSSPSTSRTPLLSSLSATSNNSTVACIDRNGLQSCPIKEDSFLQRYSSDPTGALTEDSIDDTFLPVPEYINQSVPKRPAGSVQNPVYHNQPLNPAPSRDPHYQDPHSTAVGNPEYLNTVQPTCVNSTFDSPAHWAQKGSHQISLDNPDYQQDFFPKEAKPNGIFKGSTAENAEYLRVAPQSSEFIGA

What is called IC50 is the point on the concentration scale where inhibition reaches its midpoint. Consider `COc1ccc2nccc(-c3[nH]c4c(c3Nc3cccc(Cl)c3OC)C(=O)NCC4)c2c1` [Compound 773, 3-[(3-chloro-2-methoxyphenyl)amino]-2-(6-methoxyquinolin-4-yl)-1H,5H,6H,7H-pyrrolo[3,2-c]pyridin-4-one], for which the IC50 (in experiment [1]; in experiment [2]; in experiment [3]; on EGFR WT (Ba/F3 cells)) was above 1000 nM each time.
In the case of `COc1c(Cl)cccc1Nc1c(-c2ccnc3cnc(C4CC4)nc23)[nH]c2c1C(=O)NCC2` [Compound 776, 3-[(3-chloro-2-methoxyphenyl)amino]-2-{2-cyclopropylpyrido[3,2-d]pyrimidin-8-yl}-1H,5H,6H,7H-pyrrolo[3,2-c]pyridin-4-one], the IC50 in experiment [1] was below 100 nM; in experiment [2], below 100 nM; in experiment [3], below 100 nM; on EGFR WT (Ba/F3 cells), 100 to 1000 nM.
With `COc1c(Cl)cccc1Nc1c(-c2ccnc3ccc(OC4COC4)nc23)[nH]c2c1C(=O)NCC21CC1` [Compound 777, 3′-[(3-chloro-2-methoxyphenyl)amino]-2′-[6-(oxetan-3-yloxy)-1,5-naphthyridin-4-yl]-5′,6′-dihydro-1′H-spiro[cyclopropane-1,7′-pyrrolo[3,2-c]pyridin]-4′-one], the IC50 is below 100 nM in experiment [1], below 100 nM in experiment [2], below 100 nM in experiment [3] and 100 to 1000 nM on EGFR WT (Ba/F3 cells).
Turning to `COc1c(F)cccc1Nc1c2c(n(C)c1-c1ccncc1F)CCNC2=O` [Compound 789, 3-[(3-fluoro-2-methoxyphenyl)amino]-2-(3-fluoropyridin-4-yl)-1-methyl-5H,6H,7H-pyrrolo[3,2-c]pyridin-4-one], the IC50 (in experiment [1]; in experiment [2]; in experiment [3]; at EGFR WT (Ba/F3 cells)) was above 1000 nM in each case.
Regarding `CCc1c(F)cccc1Nc1c(-c2ccnc3cnc(OC)nc23)[nH]c2c1C(=O)NCC2` [Compound 791, 3-[(2-ethyl-3-fluorophenyl)amino]-2-[2-methoxypyrido[3,2-d]pyrimidin-8-yl]-1H,5H,6H,7H-pyrrolo[3,2-c]pyridin-4-one], the IC50 in experiment [1] is below 100 nM; in experiment [2], below 100 nM; in experiment [3], 100 to 1000 nM; on EGFR WT (Ba/F3 cells) it was 100 to 1000 nM.
With `COc1ncc2nccc(-c3[nH]c4c(c3Nc3cc(F)cc(Cl)c3OC)C(=O)NCC4)c2n1` [Compound 792, 3-[(3-chloro-5-fluoro-2-methoxyphenyl)amino]-2-[2-methoxypyrido[3,2-d]pyrimidin-8-yl]-1H,5H,6H,7H-pyrrolo[3,2-c]pyridin-4-one], the IC50 in experiment [1] was below 100 nM; in experiment [2] it was below 100 nM; in experiment [3], below 100 nM; at EGFR WT (Ba/F3 cells), 100 to 1000 nM.
For `COc1ncc2nccc(-c3[nH]c4c(c3Nc3cccc(Cl)c3C)C(=O)NCC4)c2n1` [Compound 793, 3-[(3-chloro-2-methylphenyl)amino]-2-[2-methoxypyrido[3,2-d]pyrimidin-8-yl]-1H,5H,6H,7H-pyrrolo[3,2-c]pyridin-4-one], the IC50 in experiment [1] is below 100 nM; in experiment [2] it was below 100 nM; in experiment [3], below 100 nM; at EGFR WT (Ba/F3 cells) it was 100 to 1000 nM.
`COc1ncc2nccc(-c3[nH]c4c(c3Nc3cccc(F)c3CC(F)F)C(=O)NCC4)c2n1` [Compound 795, 3-{[2-(2,2-difluoroethyl)-3-fluorophenyl]amino}-2-{2-methoxypyrido[3,2-d]pyrimidin-8-yl}-1H,5H,6H,7H-pyrrolo[3,2-c]pyridin-4-one]: the IC50 in experiment [1] was 100 to 1000 nM; in experiment [2] it was 100 to 1000 nM; in experiment [3], 100 to 1000 nM; at EGFR WT (Ba/F3 cells), above 1000 nM.
With `COc1ncc2nccc(-c3[nH]c4c(c3Nc3cccc(Cl)c3)C(=O)NCC4)c2n1` [Compound 798, 3-[(3-chlorophenyl)amino]-2-[2-methoxypyrido[3,2-d]pyrimidin-8-yl]-1H,5H,6H,7H-pyrrolo[3,2-c]pyridin-4-one], the IC50 was below 100 nM in experiment [1], below 100 nM in experiment [2], below 100 nM in experiment [3] and 100 to 1000 nM on EGFR WT (Ba/F3 cells).
`COc1ncc2nccc(-c3[nH]c4c(c3Nc3cccc(Cl)c3F)C(=O)NCC4)c2n1` [Compound 799, 3-[(3-chloro-2-fluorophenyl)amino]-2-[2-methoxypyrido[3,2-d]pyrimidin-8-yl]-1H,5H,6H,7H-pyrrolo[3,2-c]pyridin-4-one]: the IC50 in experiment [1] was below 100 nM; in experiment [2], below 100 nM; in experiment [3], below 100 nM; on EGFR WT (Ba/F3 cells) it was 100 to 1000 nM.
For `CCc1c(Cl)cccc1Nc1c(-c2ccnc3cnc(OC)nc23)[nH]c2c1C(=O)NCC2` [Compound 800, 3-[(3-chloro-2-ethylphenyl)amino]-2-[2-methoxypyrido[3,2-d]pyrimidin-8-yl]-1H,5H,6H,7H-pyrrolo[3,2-c]pyridin-4-one], the IC50 in experiment [1] was below 100 nM; in experiment [2] it was below 100 nM; in experiment [3], 100 to 1000 nM; at EGFR WT (Ba/F3 cells), 100 to 1000 nM.
Turning to `COc1ncc2nccc(-c3[nH]c4c(c3Nc3cccc(Cl)c3C(F)(F)F)C(=O)NCC4)c2n1` [Compound 801, 3-{[3-chloro-2-(trifluoromethyl)phenyl]amino}-2-{2-methoxypyrido[3,2-d]pyrimidin-8-yl}-1H,5H,6H,7H-pyrrolo[3,2-c]pyridin-4-one], the IC50 in experiment [1] is 100 to 1000 nM; in experiment [2], above 1000 nM; in experiment [3], above 1000 nM; at EGFR WT (Ba/F3 cells), above 1000 nM.
For `COc1ncc2nccc(-c3[nH]c4c(c3Nc3cccc(Cl)c3OC(F)(F)F)C(=O)NCC4)c2n1` [Compound 802, 3-[[3-chloro-2-(trifluoromethoxy)phenyl]amino]-2-[2-methoxypyrido[3,2-d]pyrimidin-8-yl]-1H,5H,6H,7H-pyrrolo[3,2-c]pyridin-4-one], the 50% inhibitory concentration (IC50) (in experiment [1]; in experiment [2]; in experiment [3]; at EGFR WT (Ba/F3 cells)) was above 1000 nM each time.
As for `COc1ncc2nccc(-c3[nH]c4c(c3Nc3cccc(Cl)c3Cl)C(=O)NCC4)c2n1` [Compound 803, 3-[(2,3-dichlorophenyl)amino]-2-[2-methoxypyrido[3,2-d]pyrimidin-8-yl]-1H,5H,6H,7H-pyrrolo[3,2-c]pyridin-4-one], the IC50 was below 100 nM in experiment [1], below 100 nM in experiment [2], below 100 nM in experiment [3] and 100 to 1000 nM at EGFR WT (Ba/F3 cells).
As to `COc1ncc2nccc(-c3[nH]c4c(c3Nc3cccc(C)c3F)C(=O)NCC4)c2n1` [Compound 804, 3-[(2-fluoro-3-methylphenyl)amino]-2-[2-methoxypyrido[3,2-d]pyrimidin-8-yl]-1H,5H,6H,7H-pyrrolo[3,2-c]pyridin-4-one], the IC50 was 100 to 1000 nM in experiment [1], below 100 nM in experiment [2], below 100 nM in experiment [3] and 100 to 1000 nM on EGFR WT (Ba/F3 cells).
Turning to `COc1ncc2nccc(-c3[nH]c4c(c3Nc3cccc(F)c3F)C(=O)NCC4)c2n1` [Compound 805, 3-[(2,3-difluorophenyl)amino]-2-[2-methoxypyrido[3,2-d]pyrimidin-8-yl]-1H,5H,6H,7H-pyrrolo[3,2-c]pyridin-4-one], the IC50 in experiment [1] is 100 to 1000 nM; in experiment [2] it was below 100 nM; in experiment [3], below 100 nM; on EGFR WT (Ba/F3 cells) it was 100 to 1000 nM.
